The source of these data is ChEMBL document CHEMBL1201862, “PubChem BioAssay data set” (2004).

Among the test systems are NCI-H226; T47D; KM12; SF-295; OVCAR-5; SW-620; IGROV-1; SK-MEL-28; OVCAR-3; MDA-N; CAKI-1; OVCAR-4; NCI-H23; Malme-3M; SN12C; HCC 2998; EKVX; U-251; UO-31; HCT-15.
Common to all, as to assay: NCI tumour cell line growth inhibition, 48 h

“And” between values parts separate entries of the source, which are not always exact repeats. Identical values can stand only once.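 Interpolation was linear, between the two tested concentrations surrounding the appropriate level; five concentrations were tested over 48 hours in 96-well plates. Here, GI50 denotes the concentration required for 50% inhibition of growth.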 The source made the active and inactive calls. Cut-off read from the data, not from the text of the source: active = GI50 up to about 1.1 µM and inactive = higher. Some results are limits rather than exact numbers.

With `Cc1cc(-c2cc(C)c(O)c(C(C)(C)C)c2)cc(C(C)(C)C)c1O`, the GI50 is 10.7 µM (inactive) and 19.8 µM (inactive) with NCI-H226; 4.53 µM (inactive) and 7 µM (inactive) in the assay with T47D; 6.07 µM (inactive) and 9.06 µM (inactive) in the assay on KM12; 9.82 µM (inactive) and 11.1 µM (inactive) in the assay with SF-295; 14.5 µM (inactive) and 11.9 µM (inactive) in the assay with OVCAR-5; 16.4 µM (inactive) and 11 µM (inactive) with SW-620. The GI50 in the assay on IGROV-1 is 20.8 µM (inactive) and 12 µM (inactive); with SK-MEL-28, 16.7 µM (inactive) and 12 µM (inactive); in the assay with OVCAR-3, 12.2 µM (inactive) and 14.1 µM (inactive); with MDA-N, 14.7 µM (inactive) and 8.65 µM (inactive); with CAKI-1, 14.6 µM (inactive) and 9.66 µM (inactive); with OVCAR-4 it was 12.4 µM (inactive) and 11.6 µM (inactive). Besides, the GI50 was 10.4 µM (inactive) and 12.9 µM (inactive) in the assay with NCI-H23; 14.6 µM (inactive) and 21.4 µM (inactive) with Malme-3M; 13.4 µM (inactive) and 12.3 µM (inactive) with SN12C; 4.54 µM (inactive) and 4.59 µM (inactive) in the assay on HCC 2998; 14.8 µM (inactive) and 10.8 µM (inactive) with EKVX; 13.6 µM (inactive) and 10.6 µM (inactive) in the assay with U-251. The GI50 with UO-31 is 11 µM (inactive) and 18.1 µM (inactive).
For the compound `CC(=O)O[C@H]1CC[C@H]2[C@@H]3CCc4cc(O)c(I)cc4[C@H]3CC[C@]12C`, the GI50 in the assay with NCI-H226 is 14.9 µM (inactive); with T47D, 14.7 µM (inactive); with KM12, 12 µM (inactive); in the assay on SF-295 it was 15.3 µM (inactive); in the assay with HCT-15 it was 10.5 µM; in the assay with OVCAR-5 it was 18.2 µM (inactive). The GI50 with SW-620 is 13 µM (inactive); in the assay on IGROV-1 it was 16.9 µM (inactive); in the assay with SK-MEL-28 it was 15.3 µM (inactive); in the assay on OVCAR-3, 16.6 µM (inactive); with MDA-N, 15.9 µM (inactive); with CAKI-1, 16.1 µM (inactive). The GI50 is 13.6 µM (inactive) in the assay with OVCAR-4; 12.5 µM (inactive) with NCI-H23; 16.9 µM (inactive) with Malme-3M; 15 µM (inactive) with HCC 2998; 13.1 µM (inactive) in the assay with EKVX; 14.7 µM (inactive) in the assay on U-251. Besides, the GI50 with UO-31 is 14 µM (inactive).
Regarding `O=NN1C(c2ccccc2)CC(=NO)CC1c1ccccc1` (centres undefined), the GI50 with NCI-H226 is > 100 µM (inactive); with T47D, > 100 µM (inactive); in the assay on KM12, > 100 µM (inactive); in the assay with SF-295, > 100 µM (inactive); in the assay with HCT-15, more than 100 µM; in the assay with SW-620 it was > 100 µM (inactive). The GI50 with IGROV-1 was > 100 µM (inactive); with SK-MEL-28 it was > 100 µM (inactive); in the assay on OVCAR-3 it was > 100 µM (inactive); in the assay on MDA-N, > 100 µM (inactive); in the assay on CAKI-1 it was 68.4 µM (inactive); with OVCAR-4, > 100 µM (inactive). For the same compound, the GI50 in the assay on NCI-H23 was > 100 µM (inactive); with Malme-3M, > 100 µM (inactive); in the assay on SN12C, > 100 µM (inactive); in the assay on HCC 2998 it was 79.1 µM (inactive); with EKVX, > 100 µM (inactive); in the assay on U-251 it was > 100 µM (inactive). Further, the GI50 in the assay with UO-31 was > 100 µM (inactive).
For the compound `Oc1ccc(Br)cc1/C=N/c1c(NC2CCCCC2)oc2ccc(Br)cc12`, the GI50 was 45.3 µM (inactive) in the assay on NCI-H226; 8.34 µM (inactive) in the assay on T47D; 21 µM (inactive) with KM12; 47.4 µM (inactive) in the assay on SF-295; 25.1 µM in the assay with HCT-15; 63.1 µM (inactive) in the assay on OVCAR-5. Moreover, the GI50 in the assay with SW-620 was 35.3 µM (inactive); with IGROV-1, 56.4 µM (inactive); with SK-MEL-28 it was 41.5 µM (inactive); in the assay with OVCAR-3, 18.2 µM (inactive); in the assay with MDA-N, 32.6 µM (inactive); with CAKI-1, 36.8 µM (inactive). Also, the GI50 with OVCAR-4 is 38 µM (inactive); with NCI-H23, 15.5 µM (inactive); in the assay with Malme-3M it was 31.7 µM (inactive); with SN12C, 44.4 µM (inactive); in the assay with HCC 2998 it was 35.8 µM (inactive); with EKVX it was 45.1 µM (inactive). Besides, the GI50 was 34.9 µM (inactive) in the assay with U-251 and 31 µM (inactive) in the assay on UO-31.
For `CC(=O)/C(=C\n1c(=S)[nH]c2ccc([N+](=O)[O-])cc21)C(=O)Nc1ccccc1C`, the GI50 was > 100 µM (inactive) in the assay with NCI-H226; > 100 µM (inactive) in the assay on T47D; > 100 µM (inactive) in the assay with SF-295; more than 100 µM with HCT-15; > 100 µM (inactive) in the assay with OVCAR-5; > 100 µM (inactive) with SW-620. The GI50 in the assay on IGROV-1, in the assay on SK-MEL-28, with OVCAR-3, in the assay on MDA-N, in the assay on CAKI-1 and in the assay with OVCAR-4 was > 100 µM (inactive) throughout. The GI50 in the assay with NCI-H23, in the assay on Malme-3M, in the assay with SN12C, with HCC 2998, in the assay on EKVX and in the assay on U-251 was > 100 µM (inactive) in each case.
Take `C=C(CCOC)CCC1CCCCC(=C)C1=O` (centres undefined): the GI50 in the assay with NCI-H226 is > 100 µM (inactive); with T47D it was > 100 µM (inactive); in the assay with KM12, 63.1 µM (inactive); with SF-295 it was > 100 µM (inactive); in the assay on HCT-15, more than 100 µM; in the assay with OVCAR-5, > 100 µM (inactive). Further, the GI50 in the assay on SW-620, with IGROV-1, in the assay on SK-MEL-28, in the assay with OVCAR-3, with MDA-N and with CAKI-1 was > 100 µM (inactive) throughout. Further, the GI50 in the assay with OVCAR-4, in the assay on NCI-H23, with Malme-3M, in the assay on SN12C, in the assay with HCC 2998 and in the assay with EKVX was > 100 µM (inactive) in each case. The GI50 with U-251 and in the assay with UO-31 was > 100 µM (inactive) each time.
For the compound `NC1c2c(Cl)sc(Cl)c2C(=O)C1O` (centres undefined), the GI50 in the assay on NCI-H226 is > 100 µM (inactive); in the assay with T47D, > 100 µM (inactive); in the assay with KM12, > 100 µM (inactive); in the assay with SF-295, 32.6 µM (inactive); in the assay with HCT-15, 16.5 µM; in the assay on OVCAR-5, > 100 µM (inactive). Further, the GI50 in the assay on SW-620 was 17.4 µM (inactive); with IGROV-1, 57.9 µM (inactive); in the assay with OVCAR-3, 30.8 µM (inactive); with MDA-N, 44.4 µM (inactive); in the assay on CAKI-1, 24.4 µM (inactive); in the assay on OVCAR-4, 17.2 µM (inactive). In addition, the GI50 in the assay on NCI-H23 was 15.6 µM (inactive); in the assay on Malme-3M it was 37.9 µM (inactive); in the assay on SN12C, 15.8 µM (inactive); with HCC 2998, 17 µM (inactive); in the assay on EKVX, 21.6 µM (inactive); with U-251, 21.2 µM (inactive). Also, the GI50 in the assay on UO-31 was 31.9 µM (inactive).
